Results reported in US11384062B2 (CombiPhos Catalysts, Inc., priority 2017, dated 2022).

Assays:
786-0 = settings: 10 μM single dose; Renal Cancer 786-0
Description: (§1) The test compounds were screened for anticancer activity at the Development Therapeutic Program (DTP), National Cancer Institute (NCI), USA, against a full NCI 59 cell line panel (six cell lines of leukemia, nine cell lines of lung cancer, seven cell lines of colon cancer, six cell lines of CNS cancer, nine cell lines of melanoma, seven cell lines of ovarian cancer, seven cell lines of renal cancer, two cell lines of prostate cancer, and six cell lines of breast cancer) representing nine human systems in total as leukemia, melanoma, and cancers of the lungs, colon, brain, breast, ovary, kidney, and prostate, according to the applied protocol. A primary in vitro one dose anticancer assay was performed at a single dose (10 μM) against the full NCI 59 cell line panel. The one dose data was reported as a mean graph of the percent growth of treated cells. The number reported for the single dose assay was growth relative to the no drug control and relative to the initial number of cells at time 0. […] A value of −40 means 40% lethality. A value of −100 means all cells are dead.

A549/ATCC = settings: 10 μM single dose; Non-Small Cell Lung Cancer A549/ATCC
Description: as §1

ACHN = settings: 10 μM single dose; Renal Cancer ACHN
Description: as §1

COLO 205 = settings: 10 μM single dose; Colon Cancer COLO 205
Description: as §1

DU-145 = settings: 10 μM single dose; Prostate Cancer DU-145
Description: as §1

EKVX = settings: 10 μM single dose; Non-Small Cell Lung Cancer EKVX
Description: as §1

HCC-2998 = settings: 10 μM single dose; Colon Cancer HCC-2998
Description: as §1

HCT-116 = settings: 10 μM single dose; Colon Cancer HCT-116
Description: as §1

HS 578T = settings: 10 μM single dose; Breast Cancer HS 578T
Description: as §1

IGROV1 = settings: 10 μM single dose; Ovarian Cancer IGROV1
Description: as §1

K-562 = settings: 10 μM single dose; Leukemia K-562
Description: as §1

KM12 = settings: 10 μM single dose; Colon Cancer KM12
Description: as §1

MCF7 = settings: 10 μM single dose; Breast Cancer MCF7
Description: as §1

NCI-H226 = settings: 10 μM single dose; Non-Small Cell Lung Cancer NCI-H226
Description: as §1

NCI-H23 = settings: 10 μM single dose; Non-Small Cell Lung Cancer NCI-H23
Description: as §1

NCI-H322M = settings: 10 μM single dose; Non-Small Cell Lung Cancer NCI-H322M
Description: as §1

NCI-H460 = settings: 10 μM single dose; Non-Small Cell Lung Cancer NCI-H460
Description: as §1

NCI-H522 = settings: 10 μM single dose; Non-Small Cell Lung Cancer NCI-H522
Description: as §1

OVCAR-3 = settings: 10 μM single dose; Ovarian Cancer OVCAR-3
Description: as §1

OVCAR-4 = settings: 10 μM single dose; Ovarian Cancer OVCAR-4
Description: as §1

OVCAR-5 = settings: 10 μM single dose; Ovarian Cancer OVCAR-5
Description: as §1

OVCAR-8 = settings: 10 μM single dose; Ovarian Cancer OVCAR-8
Description: as §1

RPMI-8226 = settings: 10 μM single dose; Leukemia RPMI-8226
Description: as §1

RXF 393 = settings: 10 μM single dose; Renal Cancer RXF 393
Description: as §1

SF-539 = settings: 10 μM single dose; CNS Cancer SF-539
Description: as §1

SK-MEL-5 = settings: 10 μM single dose; Melanoma SK-MEL-5
Description: as §1

SK-OV-3 = settings: 10 μM single dose; Ovarian Cancer SK-OV-3
Description: as §1

SN12C = settings: 10 μM single dose; Renal Cancer SN12C
Description: as §1

SNB-19 = settings: 10 μM single dose; CNS Cancer SNB-19
Description: as §1

SNB-75 = settings: 10 μM single dose; CNS Cancer SNB-75
Description: as §1

SR = settings: 10 μM single dose; Leukemia SR
Description: as §1

T-47D = settings: 10 μM single dose; Breast Cancer T-47D
Description: as §1

TK-10 = settings: 10 μM single dose; Renal Cancer TK-10
Description: as §1

U251 = settings: 10 μM single dose; CNS Cancer U251
Description: as §1

UACC-257 = settings: 10 μM single dose; Melanoma UACC-257
Description: as §1

UO-31 = settings: 10 μM single dose; Renal Cancer UO-31
Description: as §1

HL-60(TB) = settings: 10 μM single dose; Leukemia HL-60(TB)

| SMILES | Growth Percentage (786-0) | Growth Percentage (A549/ATCC) | Growth Percentage (ACHN) | Growth Percentage (COLO 205) | Growth Percentage (DU-145) | Growth Percentage (EKVX) | Growth Percentage (HCC-2998) | Growth Percentage (HCT-116) | Growth Percentage (HS 578T) | Growth Percentage (IGROV1) | Growth Percentage (K-562) | Growth Percentage (KM12) | Growth Percentage (MCF7) | Growth Percentage (NCI-H226) | Growth Percentage (NCI-H23) | Growth Percentage (NCI-H322M) | Growth Percentage (NCI-H460) | Growth Percentage (NCI-H522) | Growth Percentage (OVCAR-3) | Growth Percentage (OVCAR-4) | also measured |
| --- | --- | --- | --- | --- | --- | --- | --- | --- | --- | --- | --- | --- | --- | --- | --- | --- | --- | --- | --- | --- | --- |
| [2H]C1([2H])NC([2H])([2H])C([2H])(c2ccc(-n3cc4cccc(C(N)=O)c4n3)cc2)C([2H])([2H])C1([2H])[2H] (racemic) [Example 3, 2-(4-(piperidin-3-yl-2,2,3,4,4,5,5,6,6-d9)phenyl)-2H-indazole-7-carboxamide] | 103.31% | 67.74% | 77.21% | 94.82% | 97.89% | 100.49% | 88.49% | 83.66% | 86.68% | 83.23% | 89.73% | 99.34% | 75.22% | 93.61% | 91.99% | 98.96% | 86.91% | 83.10% | 103.07% | 106.31% | Growth Percentage (OVCAR-5): 100.56%; Growth Percentage (OVCAR-8): 81.93%; Growth Percentage (RPMI-8226): 87.86%; Growth Percentage (RXF 393): 111.56%; Growth Percentage (SF-539): 96.82%; Growth Percentage (SK-MEL-5): 93.38%; Growth Percentage (SK-OV-3): 96.60%; Growth Percentage (SN12C): 93.25%; Growth Percentage (SNB-19): 91.61%; Growth Percentage (SNB-75): 76.50%; Growth Percentage (SR): 59.44%; Growth Percentage (T-47D): 98.94%; Growth Percentage (TK-10): 98.41%; Growth Percentage (U251): 85.78%; Growth Percentage (UACC-257): 97.56%; Growth Percentage (UO-31): 80.19%; Growth Percentage (HL-60(TB)): 89.31% |
| [2H]c1c([2H])c(-n2nc3c(C(N)=O)cccc3c2[2H])c([2H])c([2H])c1C1CCCNC1 (racemic) [Example 11, 2-(4-(piperidin-3-yl)phenyl-2,3,5,6-d4)-2H-indazole-3-d-7-carboxamide] | 97.43% | 70.16% | 72.39% | 79.11% | 87.51% | 91.65% | 80.10% | 81.62% | 81.82% | 74.29% | 87.94% | 83.99% | 69.21% | 92.42% | 82.01% | 85.94% | 80.76% | 89.79% | 97.70% | 103.47% | Growth Percentage (OVCAR-5): 89.69%; Growth Percentage (OVCAR-8): 84.66%; Growth Percentage (RPMI-8226): 78.32%; Growth Percentage (RXF 393): 107.27%; Growth Percentage (SF-539): 77.48%; Growth Percentage (SK-MEL-5): 91.06%; Growth Percentage (SK-OV-3): 94.12%; Growth Percentage (SN12C): 81.90%; Growth Percentage (SNB-19): 85.34%; Growth Percentage (SNB-75): 76.35%; Growth Percentage (SR): 37.42%; Growth Percentage (T-47D): 90.97%; Growth Percentage (TK-10): 102.70%; Growth Percentage (U251): 92.89%; Growth Percentage (UACC-257): 102.12%; Growth Percentage (UO-31): 79.89%; Growth Percentage (HL-60(TB)): 69.13% |
| [2H]c1c([2H])c(C2([2H])C([2H])NC([2H])C([2H])C2[2H])c([2H])c([2H])c1-n1cc2cccc(C(N)=O)c2n1 (stereo not drawn) [Example 4, 2-(4-(piperidin-3-yl-2,3,4,5,6-d5)phenyl-2,3,5,6-d4)-2H-indazole-7-carboxamide] | 92.79% | 67.08% | 72.83% | 82.07% | 89.54% | 88.21% | 83.97% | 77.22% | 86.01% | 73.75% | 77.76% | 87.65% | 64.30% | 91.01% | 84.26% | 84.01% | 76.94% | 87.37% | 107.53% | 98.64% | Growth Percentage (OVCAR-5): 89.23%; Growth Percentage (OVCAR-8): 82.86%; Growth Percentage (RPMI-8226): 90.85%; Growth Percentage (RXF 393): 102.74%; Growth Percentage (SF-539): 82.30%; Growth Percentage (SK-MEL-5): 91.65%; Growth Percentage (SK-OV-3): 90.49%; Growth Percentage (SN12C): 89.59%; Growth Percentage (SNB-19): 88.53%; Growth Percentage (SNB-75): 70.09%; Growth Percentage (SR): 47.47%; Growth Percentage (T-47D): 98.04%; Growth Percentage (TK-10): 96.15%; Growth Percentage (U251): 83.63%; Growth Percentage (UACC-257): 107.99%; Growth Percentage (UO-31): 75.43%; Growth Percentage (HL-60(TB)): 77.68% |
